Like-named read-outs stand apart in the source and are kept apart here.
Columns and labels:
Type in all cases: in vivo
[1] = system: windgrass (Apera spica-venti); assay: Test B postemergence plant response
In short: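 Plants grown in peat/vermiculite medium were sprayed postemergence at 2–18 cm height (1- to 4-leaf stage). After 13–15 days in the greenhouse, response was rated visually against untreated controls on a 0–100 scale (0 no effect, 100 complete control).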

[2] = system: velvetleaf (Abutilon theophrasti); assay: Test A pre-/postemergence plant response; conditions: Abutilon theophrasti, 240 h, read-out: Plant response rating, Velvetleaf; for pest or weed control at 125 g/ha: 125 g ai/ha; for pest or weed control at 500 g/ha: 500 g ai/ha, approx. ten days
In short: (§1)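 Seeds planted in loam soil/sand blend; test chemicals in non-phytotoxic solvent mixture with surfactant applied as directed soil spray preemergence and, concurrently, postemergence to plants 2–10 cm tall at one- to two-leaf stage. Greenhouse ~10 days; visual injury vs untreated controls, 0 (no effect) to 100 (complete control).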

[3] = system: barnyardgrass (Echinochloa crus-galli); assay: Test A pre-/postemergence plant response; conditions: Echinochloa crus-galli, 240 h, read-out: Plant response rating, Barnyardgrass; for pest or weed control at 125 g/ha: 125 g ai/ha; for pest or weed control at 500 g/ha: 500 g ai/ha, approx. ten days
In short: as §1

[4] = system: giant foxtail (Setaria faberii); assay: Test A pre-/postemergence plant response; conditions: Setaria faberi, 240 h, read-out: Plant response rating, Foxtail, Giant; for pest or weed control at 125 g/ha: 125 g ai/ha; for pest or weed control at 500 g/ha: 500 g ai/ha, approx. ten days
In short: as §1

[5] = system: wheat (Triticum aestivum); assay: Test A pre-/postemergence plant response; conditions: Triticum aestivum, 240 h, read-out: Plant response rating, Wheat; for plant injury at 125 g/ha: 125 g ai/ha; for plant injury at 500 g/ha: 500 g ai/ha, approx. ten days
In short: as §1

[6] = system: corn (Zea mays); assay: Test A pre-/postemergence plant response; conditions: Zea mays, 240 h; for Corn plant response rating (crop injury, 0 = no effect, 100 = complete kill) at 125 g/ha: 125 g ai/ha; for Corn plant response rating (crop injury, 0 = no effect, 100 = complete kill) at 500 g/ha: 500 g ai/ha, approx. ten days
In short: as §1

[7] = system: morningglory (Ipomoea spp.); assay: Test A pre-/postemergence plant response; conditions: Ipomoea, 240 h, read-out: Plant response rating, Morningglory; for pest or weed control at 125 g/ha: 125 g ai/ha; for pest or weed control at 500 g/ha: 500 g ai/ha, approx. ten days
In short: as §1

[8] = system: large crabgrass (Digitaria sanguinalis); assay: Test A pre-/postemergence plant response; conditions: Digitaria sanguinalis, 240 h, read-out: Plant response rating, Crabgrass, Large; for pest or weed control at 125 g/ha: 125 g ai/ha; for pest or weed control at 500 g/ha: 500 g ai/ha, approx. ten days
In short: as §1

[9] = system: pigweed (Amaranthus retroflexus); assay: Test A pre-/postemergence plant response; conditions: Amaranthus retroflexus, 240 h, read-out: Plant response rating, Pigweed; for pest or weed control at 125 g/ha: 125 g ai/ha; for pest or weed control at 500 g/ha: 500 g ai/ha, approx. ten days
In short: as §1

[10] = system: rice (Oryza sativa); assay: Test B flooded paddy test
In short: (§2)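 Visual scores run from 0 (no effect) to 100 (complete control), assigned by comparison with controls 13 to 15 days after treatment. Test compounds went straight into water standing 3 cm above the soil, around plants at the 2-leaf stage kept in a greenhouse.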

[11] = system: barnyardgrass (Echinochloa crus-galli); assay: Test B flooded paddy test
In short: as §2

[12] = system: umbrella sedge (Cyperus difformis); assay: Test B flooded paddy test
In short: as §2

[13] = system: ducksalad (Heteranthera limosa); assay: Test B flooded paddy test
In short: as §2

[14] = post-emergence, Postemergence, 0 to 100 scale where 0 is no effect and 100 is complete control
[15] = post-emergence, Postemergence, 0 to 100 scale, 0 = no effect, 100 = complete control
[16] = pre-emergence, Preemergence, 0 to 100 scale, 0 = no effect, 100 = complete control
[17] = pre-emergence, Preemergence, visual injury, 0 to 100 scale (0 no effect, 100 complete control)
[18] = Flood, 31 g ai/ha, scale 0 to 100 (0 no effect, 100 complete control)

COCCn1c(-c2ccsc2)ncc(C(=O)C2=C(O)CCCC2=O)c1=O [Compound 97, 5-[(2-hydroxy-6-oxo-1-cyclohexen-1-yl)carbonyl]-3-(2-methoxyethyl)-2-(3-thienyl)-4(3H)-pyrimidinone]
70%: pest or weed control at 125 g/ha [7, 16] | pest or weed control at 125 g/ha ([12]; Cyperus difformis, 360 h, Flood (flooded paddy test), 125 g ai/ha, scale 0 to 100, 0 is no effect, 100 is complete control, 13 to 15 days, read-out: Plant response rating, Sedge, Umbrella) | pest or weed control at 250 g/ha ([13]; Heteranthera limosa, 360 h, 250 g ai/ha, flooded paddy test, visual rating on 0 to 100 scale (0 no effect, 100 complete control) after 13 to 15 days, read-out: Plant response rating, Flood, Ducksalad)
85%: pest or weed control at 250 g/ha ([1]; Apera spica-venti, post-emergence, 360 h, Postemergence, 250 g ai/ha, scale 0 to 100 (0 no effect, 100 complete control), read-out: Plant response rating, Windgrass)
40%: plant injury at 250 g/ha ([10]; Oryza sativa, 250 g ai/ha, flooded paddy test, visual rating on 0 to 100 scale (0 no effect, 100 complete control) after 13 to 15 days, read-out: Plant response rating, Flood, Rice) | pest or weed control at 62 g/ha ([11]; Echinochloa crus-galli, 360 h, Flood (flooded paddy test), 62 g ai/ha, scale of 0 to 100 where 0 is no effect and 100 is complete control, 13 to 15 days, read-out: Plant response rating, Barnyardgrass) | pest or weed control at 62 g/ha ([12]; Cyperus difformis, 360 h, Flood (flooded paddy test), 62 g ai/ha, scale of 0 to 100 where 0 is no effect and 100 is complete control, 13 to 15 days, read-out: Plant response rating, Sedge, Umbrella)
20%: plant injury at 500 g/ha [5, 15]
50: Windgrass plant response rating (0 to 100 scale) ([1]; 62 g ai/ha, postemergence, 0 is no effect, 100 is complete control, 13 to 15 days)
100%: pest or weed control at 125 g/ha [2, 14] | pest or weed control at 500 g/ha [2, 15] | pest or weed control at 125 g/ha [2, 16] | pest or weed control at 500 g/ha [2, 17] | pest or weed control at 500 g/ha [3, 17] | pest or weed control at 125 g/ha [7, 14] | pest or weed control at 500 g/ha [7, 15] | pest or weed control at 500 g/ha [8, 15] | pest or weed control at 125 g/ha [8, 16] | pest or weed control at 500 g/ha [8, 17] | pest or weed control at 125 g/ha [9, 14] | pest or weed control at 500 g/ha [9, 15] | pest or weed control at 125 g/ha [9, 16] | pest or weed control at 500 g/ha [9, 17]
90%: pest or weed control at 125 g/ha [3, 14] | pest or weed control at 500 g/ha [3, 15] | pest or weed control at 500 g/ha [4, 17]
0: Rice plant response rating [10, 18]
50%: Corn plant response rating (crop injury, 0 = no effect, 100 = complete kill) at 125 g/ha [6, 14]
30%: pest or weed control at 62 g/ha ([13]; Heteranthera limosa, 360 h, Flood (flooded paddy test), 62 g ai/ha, scale of 0 to 100 where 0 is no effect and 100 is complete control, 13 to 15 days, read-out: Plant response rating, Ducksalad) | pest or weed control at 125 g/ha ([13]; Heteranthera limosa, 360 h, Flood (flooded paddy test), 125 g ai/ha, scale 0 to 100, 0 is no effect, 100 is complete control, 13 to 15 days, read-out: Plant response rating, Ducksalad)
80%: pest or weed control at 500 g/ha [4, 15] | Corn plant response rating (crop injury, 0 = no effect, 100 = complete kill) at 500 g/ha [6, 15] | pest or weed control at 500 g/ha [7, 17] | pest or weed control at 125 g/ha [8, 14] | pest or weed control at 250 g/ha ([12]; Cyperus difformis, 360 h, 250 g ai/ha, flooded paddy test, visual rating on 0 to 100 scale (0 no effect, 100 complete control) after 13 to 15 days, read-out: Plant response rating, Flood, Sedge, Umbrella)
30: Barnyardgrass plant response rating [11, 18] | Sedge, Umbrella plant response rating [12, 18] | Ducksalad plant response rating [13, 18]
0%: plant injury at 125 g/ha [5, 14] | plant injury at 125 g/ha [5, 16] | plant injury at 500 g/ha [5, 17] | Corn plant response rating (crop injury, 0 = no effect, 100 = complete kill) at 125 g/ha [6, 16] | Corn plant response rating (crop injury, 0 = no effect, 100 = complete kill) at 500 g/ha [6, 17] | plant injury at 62 g/ha ([10]; Oryza sativa, Flood (flooded paddy test), 62 g ai/ha, scale of 0 to 100 where 0 is no effect and 100 is complete control, 13 to 15 days, read-out: Plant response rating, Rice) | plant injury at 125 g/ha ([10]; Oryza sativa, Flood (flooded paddy test), 125 g ai/ha, scale 0 to 100, 0 is no effect, 100 is complete control, 13 to 15 days, read-out: Plant response rating, Rice)
75%: pest or weed control at 250 g/ha ([11]; Echinochloa crus-galli, 360 h, 250 g ai/ha, flooded paddy test, visual rating on 0 to 100 scale (0 no effect, 100 complete control) after 13 to 15 days, read-out: Plant response rating, Flood, Barnyardgrass)
60%: pest or weed control at 125 g/ha [3, 16] | pest or weed control at 125 g/ha [4, 14] | pest or weed control at 125 g/ha [4, 16] | pest or weed control at 125 g/ha ([11]; Echinochloa crus-galli, 360 h, Flood (flooded paddy test), 125 g ai/ha, scale 0 to 100, 0 is no effect, 100 is complete control, 13 to 15 days, read-out: Plant response rating, Barnyardgrass)
5%: pest or weed control at 31 g/ha ([1]; Apera spica-venti, post-emergence, 360 h, 31 g ai/ha, postemergence, scale 0 to 100, 0 is no effect, 100 is complete control, read-out: Plant response rating, Windgrass)

Reference: patent US8952024B2, “Herbicidal pyrimidone derivatives” (E I du Pont de Nemours and Company, priority 2009, dated 2015)
